The structures appear in SMILES notation.

What all share (type): cell-based, human
The subject of experiment [1] is irradiated HaCaT cells. Nature of the experiment: Autophagy, mRFP-GFP-LC3 infection study and LC3 II Western blotting. As to conditions: 15 µM RIFSP-2, Western blotting. The source says:
Figure 4 MUFAs facilitate ionizing radiation‐induced STING activation, which is disrupted by RIFSP‐2. A) Bioinformatic analysis of the connection between specific binding proteins of RIFSP‐2 (green nodes) and STING (red nodes) in irradiated skin cells. B) Detection of the phosphorylation of STING in RIFSP‐2‐treated and irradiated HaCaT cells through IP analysis. C) Detection of the phosphorylation of TBK1 in RIFSP‐2‐treated primary skin cells from STING wild type mice and depletion ones through Western blotting analysis. D) Investigation of the interaction between STING and RIFSP‐2 in irradiated HaCaT cells based on the established Avidin‐Biotin‐RIFSP‐2 system. E) Volcano plots of differences between lipid class in irradiated HaCaT cells pretreated with RIFSP‐2 or not. F) Influence of LPC (18:1) and RIFSP‐2 in STING downstream signals in irradiated HaCaT cells through Western blotting analysis. G) Influence of LPC (18:1) and RIFSP‐2 in STING downstream inflammatory factors in irradiated HaCaT and RAW 264.7 cells through ELISA assays. […] J) Alteration of biomarkers for autophagy and pyroptosis in irradiated HaCaT cells pretreated with 15 µM RIFSP‐2 in combination with H151 or MF438, detected by Western blotting. *P < 0.05 and **P < 0.01, compared with the control group. […]
(In general: Immunoblotting shows a protein as a band on a membrane.)

Experiment [2] has as its system irradiated skin cells. The experiment in a line: LDH release and JC-1 staining with H151. As to conditions: RIFSP-2 15 µM. The source says:
Next, we investigated whether suppression of the SCD1‐MUFA‐STING axis by RIFSP‐2 accounts for its protective effect against radiation injury in skin cells. […] Besides, Sting knockout dramatically limited the clonogenic formation ability after administration of RIFSP‐2 (Figure S4F, Supporting Information).
Figure 5 RIFSP‐2 mitigates radiation injury in a STING‐related manner. A) Cell proliferation and death assays for influence of RIFSP‐2 in primary skin cells from STING‐depleted and wild‐type mice detected by CCK‐8 and LDH analysis. B) LDH analysis of irradiated and nonirradiated skin cells pretreated with 15 µM RIFSP‐2 in combination with H151 or not. […]
A clonogenic survival assay of skin cells was performed as previously reported (1). […] Colonies consisting of 50 or more cells were counted as a clone. The relative clonogenic survival fraction was calculated using ImageJ software as previously reported […]
Cells were seeded in a 96-well plate at a density of 1 X 10^4 cells per well. […] In vitro viability was measured using the Cell Counting Kit-8 (CCK-8) (Dojindo Laboratories, Kumamoto, Japan).
Optical density was measured at 450 nm using a microplate reader (Biotek, Winooski, VT).
Cell death was measured by the level of LDH released into the supernatant using an LDH cytotoxicity assay kit (Beyotime, Nantong, China) according to the manufacturer’s instructions. […]

For experiment [3], the system named is skin cells. Nature of the experiment: BODIPY 581/591 C11 probe (ferroptosis) and AV/PI staining. On the procedure:
Figure 3 RIFSP‐2 restrained SCD1‐mediated biogenesis of MUFA in irradiated skin cells. A) Schematic showing the proteomic analysis performed to investigate the interactome of RIFSP‐2 in irradiated skin cells, as determined by liquid chromatography with tandem mass spectrometry (LC–MS/MS), based on the Avidin‐Biotin‐RIFSP‐2 system. B) Bradford staining of proteins pulled down with Biotin‐RIFSP‐2 and Venn diagram showing common and specific interactomes detected by LC–MS/MS and representative proteins. C) The enriched functions of RIFSP‐2 interactomes in irradiated skin cells based on Gene Ontology (GO) molecular function analysis. D) Colocalization analysis showing FITC‐RIFSP‐2 (green) and ER‐Tracker (red) in irradiated HaCaT cells. E) Changes in neutral lipid droplet formation in irradiated skin cells treated with RIFSP‐2 detected via BODIPY 493/503 probe staining. F) Verification of the interaction between RIFSP‐2 and SCD1 through immunoprecipitation (IP) analysis. G) Molecular simulation of the interaction between RIFSP‐2 and SCD1. […] M–P) Influence of the SCD1 inhibitor MF438 on the neutral lipid droplet formation, […], as detected by BODIPY 493/503 probe staining, BODIPY 581/591 C11 probe staining and AV/PI staining. *P < 0.05 and **P < 0.01, compared with the control group. […]

The test system of experiment [4] is STING phosphorylation in irradiated skin cells. Nature of the experiment: STING phosphorylation by IP analysis. The conditions noted are these: irradiated skin cells (HaCaT). The text has this:
Considering the localization of RIFSP‐2 in ER, we then investigated the potential connection between RIFSP‐2 and STING. First, we adopted a proteomic analysis to investigated the interactomes of STING in HaCaT cells, and identified 136 specific proteins in response to radiation. Then, strong connections between specific interactomes for RIFSP‐2 and STING in irradiated skin cells were established in protein interactive analysis, with confidence score > 0.7 (high confidence) (Figure 4A).
Figure 4 MUFAs facilitate ionizing radiation‐induced STING activation, which is disrupted by RIFSP‐2. A) Bioinformatic analysis of the connection between specific binding proteins of RIFSP‐2 (green nodes) and STING (red nodes) in irradiated skin cells. B) Detection of the phosphorylation of STING in RIFSP‐2‐treated and irradiated HaCaT cells through IP analysis. C) Detection of the phosphorylation of TBK1 in RIFSP‐2‐treated primary skin cells from STING wild type mice and depletion ones through Western blotting analysis. […] J) Alteration of biomarkers for autophagy and pyroptosis in irradiated HaCaT cells pretreated with 15 µM RIFSP‐2 in combination with H151 or MF438, detected by Western blotting. *P < 0.05 and **P < 0.01, compared with the control group. […]
Cells were subjected to indicated treatments. […] The protein level was detected by the indicated antibodies with Western blotting analysis.

The test system of experiment [5] is skin cells. The experiment in a line: BODIPY 493/503 probe staining, neutral lipid droplets. The conditions noted are these: pretreatment. The procedure:
Figure 3 RIFSP‐2 restrained SCD1‐mediated biogenesis of MUFA in irradiated skin cells. A) Schematic showing the proteomic analysis performed to investigate the interactome of RIFSP‐2 in irradiated skin cells, as determined by liquid chromatography with tandem mass spectrometry (LC–MS/MS), based on the Avidin‐Biotin‐RIFSP‐2 system. B) Bradford staining of proteins pulled down with Biotin‐RIFSP‐2 and Venn diagram showing common and specific interactomes detected by LC–MS/MS and representative proteins. C) The enriched functions of RIFSP‐2 interactomes in irradiated skin cells based on Gene Ontology (GO) molecular function analysis. D) Colocalization analysis showing FITC‐RIFSP‐2 (green) and ER‐Tracker (red) in irradiated HaCaT cells. E) Changes in neutral lipid droplet formation in irradiated skin cells treated with RIFSP‐2 detected via BODIPY 493/503 probe staining. F) Verification of the interaction between RIFSP‐2 and SCD1 through immunoprecipitation (IP) analysis. G) Molecular simulation of the interaction between RIFSP‐2 and SCD1. […] M–P) Influence of the SCD1 inhibitor MF438 on the neutral lipid droplet formation, ferroptosis, and apoptosis of irradiated skin cells pretreated with RIFSP‐2, as detected by BODIPY 493/503 probe staining, BODIPY 581/591 C11 probe staining and AV/PI staining. *P < 0.05 and **P < 0.01, compared with the control group. […]

Consider `CCc1ccc(NC(=O)Nc2c[nH]c3ccccc23)cc1` [H151], for which the “influence of pretreatment on the increase in LC3 II levels induced by RIFSP-2” value in experiment [1] was “not”. Further, in experiment [2], the LDH release entry is “attenuated LDH release”.
As for `Cc1nnc(-c2ccc(N3CCC(Oc4ccccc4C(F)(F)F)CC3)nn2)s1` [MF‐438], the “influence of pretreatment on the RIFSP-2 effects on ferroptosis and AV staining” value in experiment [3] was “diminished these effects”. Besides, in experiment [1], the “influence of pretreatment on the increase in LC3 II levels induced by RIFSP-2” value is “dramatically limited the increase in LC3 II levels”. Besides, in experiment [4], the STING phosphorylation entry is given as “significant reduction in STING phosphorylation”. In addition, the “formation of neutral lipid droplets” value in experiment [5] is recorded as “effectively promoted the formation of neutral lipid droplets”.

The record behind these values is paper PMC11220654, “A Frog Skin‐Derived Peptide Targeting SCD1 Exerts Radioprotective Effects Against Skin Injury by Inhibiting STING‐Mediated Inflammation” (Advanced Science, 2024).
